According to US20250326708A1, “LONG-ACTING SPLEEN-TARGETING CATIONIC LIPID COMPOUND COMPRISING BENZENE RING STRUCTURE, COMPOSITION COMPRISING SAME, AND USE THEREOF” (Beijing Youcarekechuang Pharmaceutical Technology Co., Ltd., priority 2024, published 2025):

Test system: female BALB/C mice
Test: Distribution of delivered small nucleic acid drug (Cy5 fluorescently labeled Leqvio) in different organs of mice
Assay type: in vivo
Method: LNP preparations containing 5 μg of Cy5 fluorescently labeled Leqvio were injected via the tail vein into female BALB/C mice (4 to 6 weeks old, weighing 17 to 19 g). At a specific time point after administration (4 h), the average radiation intensity (corresponding to fluorescence intensity) resulting from the Cy5 fluorescently labeled Leqvio delivered by the LNP preparations in the mice in vivo was detected using the IVIS Spectrum small-animal in vivo imaging system. After sampling, the mice were killed by cervical dislocation and dissected, and the internal organs: heart, liver, spleen, lung, kidney, and lymph of mice were accurately isolated. The average radiation intensity (corresponding to fluorescence intensity) resulting from Cy5 fluorescently labeled Leqvio delivered by the LNP preparations in various organs of mice was then detected using the IVIS Spectrum small-animal in vivo imaging system.

[1] = 4 hours after 5 μg Cy5 fluorescently labeled Leqvio via tail vein

CCCCCCCCCCCOC(=O)CCCN(CCCCCCC(=O)OCCC(CCCCCC)CCCCCC)CCNC(CO)(CO)CCc1ccc(CCCCCCCC)cc1 [YK-910, 3-hexylnonyl 7-((2-((1-hydroxy-2-(hydroxymethyl)-4-(4-octylphenyl)butan-2-yl)amino)ethyl) (4-oxo-4-(undecyloxy)butyl)amino) heptanoate]
Average radiation intensity of mouse organs: Heart [1]: 0 | Average radiation intensity of mouse organs: Kidney [1]: 53243 | Average radiation intensity of mouse organs: Liver [1]: 33583 | Average radiation intensity of mouse organs: Lung [1]: 0 | Average radiation intensity of mouse organs: Lymph [1]: 0 | Average radiation intensity of mouse organs: Spleen [1]: 63583 | Fluorescence intensity in the spleen, times that of SM-102 (Cy5 Leqvio, spleen, 4 h, vs SM-102): 51.19 times | Fluorescence intensity in the spleen, times that of YK-501 (Cy5 Leqvio, spleen, 4 h, vs YK-501): 11.91 times | Fluorescence intensity in the spleen, times that of YK-506 (Cy5 Leqvio, spleen, 4 h, vs YK-506): 2.85 times | Fluorescence intensity in the spleen, times that of direct administration (Cy5 Leqvio, spleen, 4 h, vs direct administration): 150.67 times
